Patent US20110045083A1, “USE LARCH WOOD FOR TREATING INFLAMMATION” (priority 2007, published 2011)

Tested on: 5-LOX mediated LT biosynthesis
Experiment: LT biosynthesis inhibition assay in activated neutrophile granulocytes, LTB4 EIA
Assay type: cell-based, human
Conditions: for IC50 / inhibition at 50 µM: Homo sapiens; for inhibition at 50 µM: screening concentration 50 μM
Method: 1.) LT biosynthesis inhibition assay
The assay was performed as described in [Michael Adams, Olaf Kunert, Ernst Haslinger, Rudolf Bauer: Inhibition of Leukotriene Biosynthesis by Quinolone Alkaloids from the Fruits of Evodia Rutaecarpa; Planta med. 2004 (70): 904-908] with some modifications.
Principle: Activated neutrophile granulocytes with 5-LOX activity are incubated with a defined concentration of test sample and arachidonic acid. After stopping the enzymatic reaction by addition of formic acid and centrifugation to remove cellular fragments, the produced LTB4 is quantified in the supernatant by means of an LTB4 EIA kit.
Isolation of human neutrophile granulocytes: 30 ml of venous human blood from healthy voluntary donors are collected with a Vacutainer™ (BD, Plymouth, UK) system containing a 0.219 M pre-analytical citric acid solution. The blood is immediately transferred to a falcon tube containing 20 ml of sedimentation solution (1% NaCl, 6% dextran T-500) and left to separate for 60 min at 4° C. While most of the dense erythrocytes sink into the dextran layer, the lighter blood fractions remain in the upper layer which is then removed and centrifuged at 1600 rpm (4° C., 10 min) to concentrate the leukocytes. The plasma supernatant is discarded, the pellet is resuspended in 10 ml of a wash buffer (10% CaCl2.2H2O p.a.; 0.1% anhydrous d-glucose; 0.2% MgCl2.6H2O; 0.04% KCl; 1.75% TRIS p.a.; with the pH adjusted to 7.6 with 1N HCl). After centrifugation at 1400 rpm (4° C., 10 min) and removal of the supernatant the resulting pellet is resuspended in 10 ml of a hypotonic lysis buffer (0.17% NH4Cl; 0.2% TRIS; pH 7.2) and gently shaken for 5 min at room temperature to destroy remaining erythrocytes. The suspension is submitted to another centrifugation at 1400 rpm (4° C., 5 min). The pellet is resuspended in 10 ml of wash buffer and then centrifuged at 1400 rpm (4° C., 15 min). The resulting pellet which now mainly contains neutrophile granulocytes is resuspended in 2 ml of TRIS buffer (1.75% TRIS p.a., 0.9% NaCl, pH 7.4), tested for vitality, quantified and then diluted to a cell concentration of 4500 cells/ml with TRIS buffer.
Cell vitality test: 50 μl of cell suspension and 10 μl of trypan blue solution (0.4%) (Sigma Chemical Co. Steinheim, Germany) are mixed on a glass object carrier and examined with a light microscope at 1000 fold magnification. Dead cells appear larger and darker due to absorption of trypan blue. The vitality of the cells must be >95%.
Determination of cell concentration: 10 μl of granulocyte cell suspension are dyed using 990 μl aqueous TURKS solution (Merck) and quantified in a “Neubauer” chamber (Assistent, Germany).
Sample preparation: samples are dissolved in an appropriate amount of ethanol p.a. to be added to the test mixture resulting in screening concentrations of 50 μM for pure compounds and 20 μg/ml for crude. The commercially available 5-LOX inhibitor zileuton (Sequoia Research Products Ltd., UK) is used as a positive control at a concentration of 10 μM representing its IC50 in this test system.
Incubation procedure: The incubation mixture in a 96-well flat bottom microtitre plate (Bibby Sterilin, Staffordshire, UK) consists of 265 μl leukocyte suspension, with 75.5 μM CaCl2, 0.152 μM […] (ETYA) as an inhibitor of the 12-LOX pathway, 0.642 μM Ca ionophore A23187 and 4.43 μM arachidonic acid, the substrate of the 5-LOX pathway, along with 5 μl of each test solution or 5 μl of EtOH p.a. in control wells. After incubation for 10 min at 37° C. in darkness, the reaction is stopped by addition of 20 μl of 10% formic acid. The microtitre plate is centrifuged for 15 min at 1400 rpm to separate free LTB4 from cellular particles before the supernatant is diluted 40 fold in EIA buffer and applied to a competitive LTB4 EIA kit (Assay Designs Inc.).
LTB4 EIA: The plate is incubated for 2 hours at room temperature on an orbital shaker. […]

Compound | IC50 [µM] | inhibition at 50 µM [%] | IC50 LT assay
CC(C)c1ccc2c(c1)CCC1C(C)(C(=O)O)CCCC21C (stereo not shown) [Dehydroabietic acid] | 44.6 | 47.9 ± 8.4 | –
CC(C)c1ccc2c(c1)CCC1C(C)(CO)CCCC21C (stereo not shown) [Dehydroabietinol] | 10.9 | 94.5 ± 1.4 | –
C=C[C@@]1(C)CC[C@H]2C(=CC[C@@H]3[C@]2(C)CCC[C@@]3(C)C(=O)O)C1 [Isopimaric acid] | 10.2 | 98.1 ± 0.5 | –
C=CC(C)(O)CCC1C(=C)CC(O)C2C(C)(C)CCCC12C (stereo not shown) [Larixol] | > 125 | 32.7 ± 5 | inactive
C=CC(C)(O)CCC1C(=C)CC(OC(C)=O)C2C(C)(C)CCCC12C (stereo not shown) [Larixyl acetate] | 10.4 | 98.1 ± 0.1 | –
CC(C)C1=CC2=C(CC1)C1(C)CCCC(C)(C(=O)O)C1CC2 (stereo not shown) [Palustric acid] | 17.8 | 66.7 ± 3.1 | –
